According to paper PMC12442081, “Combating Fuel Biocontamination: Tailored Antimicrobial Peptides and an Innovative Delivery Strategy” (ACS Applied Bio Materials, 2025):
Where no end group is shown, it is not given here.

Key:
[1] = system: Macrococcus caseolyticus (MC); test: Effectiveness of peptides on spiked fuel samples (aqueous layer); type: cell-based; design: key: (+) =1 (implying peptide activity in fuel environment); (X) = 0 (implying no activity in the desired range, indicated by microbial proliferation); Fuel x = -1(implying no activity in fuel environment); settings: initial screening in spiked fuel
Method: (§1) To study the partitioning of microbes in fuel tanks, filter-sterilized fuel was mixed with BH medium in a 1:1 (v/v) ratio. The inoculum was added to the aqueous phase at the bottom to simulate growth in the aqueous layer of fuel tanks and incubated aerobically at 30 °C for 30 days. Visible growth was assessed, and aliquots from both the aqueous and fuel phases were plated on nutrient agar plates to evaluate microbial growth. Peptides were initially added to the aqueous layer of microbially spiked fuel samples for screening the effectiveness in the fuel environment. The study was further extended over a longer duration, and incubated under aerobic conditions at 30 °C for 30 days. Microbial growth was monitored at regular intervals by plating aliquots from the aqueous layer on the nutrient agar plates.
(§2) The engineered peptides were administered at their respective MICs to the aqueous layer of simulated fuel samples, and samples from both the aqueous and solvent (fuel) layers were removed at intervals of 7, 14, 21, and 30 days and plated on LBA plates to assess cell viability (Table S5).

[2] = system: Dermacoccus nishinomiyaensis (DN); test: as above; type: cell-based; design: key: (+) =1 (implying peptide activity in fuel environment); (X) = 0 (implying no activity in the desired range, indicated by microbial proliferation); Fuel x = -1(implying no activity in fuel environment); settings: initial screening in spiked fuel
Method: as §1, §2

[3] = system: Micrococcus yunnanensis (MY); test: as above; type: cell-based; design: key: (+) =1 (implying peptide activity in fuel environment); (X) = 0 (implying no activity in the desired range, indicated by microbial proliferation); Fuel x = -1(implying no activity in fuel environment); settings: initial screening in spiked fuel
Method: as §1, §2

[4] = system: Pseudomonas aeruginosa (PA); test: as above; type: cell-based; design: key: (+) =1 (implying peptide activity in fuel environment); (X) = 0 (implying no activity in the desired range, indicated by microbial proliferation); Fuel x = -1(implying no activity in fuel environment); settings: initial screening in spiked fuel
Method: as §1, §2

[5] = system: Sphingomonas paucimobilis (SP); test: as above; type: cell-based; design: key: (+) =1 (implying peptide activity in fuel environment); (X) = 0 (implying no activity in the desired range, indicated by microbial proliferation); Fuel x = -1(implying no activity in fuel environment); settings: initial screening in spiked fuel
Method: as §1, §2

[6] = system: Bacillus licheniformis (BL); test: as above; type: cell-based; design: key: (+) =1 (implying peptide activity in fuel environment); (X) = 0 (implying no activity in the desired range, indicated by microbial proliferation); Fuel x = -1(implying no activity in fuel environment); settings: initial screening in spiked fuel
Method: as §1, §2

[7] = system: Hormoconis resinae (HR); test: as above; type: cell-based; design: key: (+) =1 (implying peptide activity in fuel environment); (X) = 0 (implying no activity in the desired range, indicated by microbial proliferation); Fuel x = -1(implying no activity in fuel environment); settings: initial screening in spiked fuel
Method: as §1, §2

[8] = system: Roseomonas mucosa (RM); test: as above; type: cell-based; design: key: (+) =1 (implying peptide activity in fuel environment); (X) = 0 (implying no activity in the desired range, indicated by microbial proliferation); Fuel x = -1(implying no activity in fuel environment); settings: initial screening in spiked fuel
Method: as §1, §2

[9] = system: Kocuria rosea (KR); test: as above; type: cell-based; design: key: (+) =1 (implying peptide activity in fuel environment); (X) = 0 (implying no activity in the desired range, indicated by microbial proliferation); Fuel x = -1(implying no activity in fuel environment); settings: initial screening in spiked fuel
Method: as §1, §2

[10] = HPLC retention time as a function of peptide hydrophobicity; type: physicochemical; settings: chromatographic, Polaris 5 C18-A reverse phase, 0.1% TFA water / 0.1% TFA acetonitrile gradient, 30 min, 300 μM peptide
Method: The purity of the peptides was ascertained by high-performance liquid chromatography (HPLC) using Polaris 5 C18-A […] × 4.6 mm reverse phase Zorbax columns from Agilent Technologies. The buffer system contained 0.1% (v/v) TFA in 100% water and 0.1% (v/v) TFA in 100% acetonitrile. Each peptide sample contained 300 μM peptides dissolved in an acetonitrile–water (1:4) mixture. A constant gradient of the two solvent systems was used to generate the chromatogram for 30 min after sample injection.

[11] = system: microbial clusters MY, KR, DN, MC, BL, RM, SP, PA, HR; test: Broad-spectrum activity score (in-house scoring matrix); settings: sum over 9 microbial clusters: (+) = 1, (X) = 0, Fuel x = -1
Method: Table S4. Summarizing the broad-spectrum activity of the peptides, considering the MIC value/ efficacy to control microbial growth upon fuel co-incubation
Peptides Bacterial clusters Fungal
Actinobacteria Firmicutes Proteobacteria Asco- […]
Peptides identified based on the scoring matrix, where (+) =1 (implying peptide activity in fuel environment); (X) = 0 (implying no activity in the desired range, indicated by microbial proliferation); Fuel x = -1(implying no activity in fuel environment).
Clearly, P17 is the best performing peptide in vitro across diverse microbial phyla as well as when incubated in the fuel environment. Based on the activity of the selected peptides, the best

[12] = system: Bacillus licheniformis (BL) ATCC 14580; type: cell-based; settings: ATCC 14580
Method: (§3) All of the bacterial species were grown overnight at 37 °C in LB broth. 10^7 CFU/mL of cells were resuspended in fresh culture and grown until the mid log phase. , The bacterial cells were adjusted to a concentration of 5 × 10^5 CFU/mL to quantify the MIC. Equal volumes of the respective bacterial cultures were incubated with the serially diluted peptides in 96-well microtiter plate and incubated overnight at 37 °C in ambient air. Microorganisms without peptides were treated as the positive control, while uninoculated broth was used as the negative control. The MIC was taken as the lowest peptide concentration at which observable bacteria growth was inhibited, as measured by a microplate reader (Biotek Synergy H1 microplate reader). Experiments were performed in triplicates, and the mean MIC values were determined. A similar study was performed to understand the effect of peptide purity, i.e., ranging from 70 to 95%, on the peptide MIC.

[13] = system: Micrococcus yunnanensis (MY) ATCC 12698; type: cell-based
Method: as §3

[14] = system: Sphingomonas paucimobilis (SP); type: cell-based
Method: as §3

[15] = system: Macrococcus caseolyticus (MC) ATCC 13548; type: cell-based
Method: as §3

[16] = system: Kocuria rosea (KR) ATCC 186; type: cell-based
Method: as §3

[17] = system: Dermacoccus nishinomiyaensis (DN) ATCC 29093; type: cell-based
Method: as §3

[18] = system: Pseudomonas aeruginosa (PA) ATCC 39327; type: cell-based; settings: ATCC 39327
Method: as §3

[19] = system: Hormoconis resinae (HR) ATCC 20267; type: cell-based
Method: as §3
The same experimental procedures that were conducted for the antibacterial assay were used to determine the MIC of the peptides against the fungal strain, H. resinae.

Compound: CC[C@H](C)[C@H](N)C(=O)N[C@@H](CC(C)C)C(=O)N[C@@H](Cc1ccccc1)C(=O)N[C@@H](Cc1c[nH]c2ccccc12)C(=O)N[C@@H](CCCCN)C(=O)N[C@@H](Cc1c[nH]c2ccccc12)C(=O)N1CCC[C@H]1C(=O)N[C@@H](Cc1c[nH]c2ccccc12)C(=O)N[C@@H](Cc1c[nH]c2ccccc12)C(=O)N1CCC[C@H]1C(=O)N[C@@H](Cc1c[nH]c2ccccc12)C(=O)N[C@@H](CCCNC(=N)N)C(=O)N[C@@H](CCCNC(=N)N)C(=O)O [P16]
- activity considering MIC value/efficacy upon fuel co-incubation [1]: X
- activity considering MIC value/efficacy upon fuel co-incubation [2]: X
- activity considering MIC value/efficacy upon fuel co-incubation [3]: +
- activity considering MIC value/efficacy upon fuel co-incubation [4]: X
- activity considering MIC value/efficacy upon fuel co-incubation [5]: +
- activity considering MIC value/efficacy upon fuel co-incubation [6]: +
- activity considering MIC value/efficacy upon fuel co-incubation [7]: X
- activity considering MIC value/efficacy upon fuel co-incubation [8]: X
- activity considering MIC value/efficacy upon fuel co-incubation [9]: +
- R t, retention time of peptide on HPLC column as a function of peptide hydrophobicity [10]: 14.075 min
- Score [11]: 4
- MIC [12]: 0.9 µM
- MIC [13]: 0.9 µM
- MIC [14]: 0.9 µM
- MIC [15]: 125 µM
- MIC [16]: 1.9 µM

Compound: CC[C@H](C)[C@H](N)C(=O)N[C@@H](CC(C)C)C(=O)N[C@H](C(=O)N[C@@H](Cc1c[nH]c2ccccc12)C(=O)N[C@@H](CCCCN)C(=O)N[C@@H](Cc1c[nH]c2ccccc12)C(=O)N1CCC[C@H]1C(=O)N[C@@H](Cc1c[nH]c2ccccc12)C(=O)N[C@@H](Cc1c[nH]c2ccccc12)C(=O)N1CCC[C@H]1C(=O)N[C@@H](Cc1c[nH]c2ccccc12)C(=O)N[C@@H](CCCNC(=N)N)C(=O)N[C@@H](CCCNC(=N)N)C(=O)O)[C@@H](C)CC [P18]
- activity considering MIC value/efficacy upon fuel co-incubation [1]: X
- activity considering MIC value/efficacy upon fuel co-incubation [2]: Fuel x
- activity considering MIC value/efficacy upon fuel co-incubation [3]: +
- activity considering MIC value/efficacy upon fuel co-incubation [4]: X
- activity considering MIC value/efficacy upon fuel co-incubation [5]: +
- activity considering MIC value/efficacy upon fuel co-incubation [6]: +
- activity considering MIC value/efficacy upon fuel co-incubation [7]: X
- activity considering MIC value/efficacy upon fuel co-incubation [8]: X
- activity considering MIC value/efficacy upon fuel co-incubation [9]: +
- R t, retention time of peptide on HPLC column as a function of peptide hydrophobicity [10]: 13.314 min
- Score [11]: 3
- MIC [12]: 1.9 µM
- MIC [13]: 0.9 µM
- MIC [14]: 0.9 µM
- MIC [15]: 31.25 µM
- MIC [16]: 0.9 µM
- MIC [17]: 0.9 µM

Compound: CC[C@H](C)[C@H](N)C(=O)N[C@@H](CC(C)C)C(=O)N[C@@H](CC(C)C)C(=O)N[C@@H](Cc1c[nH]c2ccccc12)C(=O)N[C@@H](CCCCN)C(=O)N[C@@H](Cc1c[nH]c2ccccc12)C(=O)N1CCC[C@H]1C(=O)N[C@@H](Cc1c[nH]c2ccccc12)C(=O)N[C@@H](Cc1c[nH]c2ccccc12)C(=O)N1CCC[C@H]1C(=O)N[C@@H](Cc1c[nH]c2ccccc12)C(=O)N[C@@H](CCCNC(=N)N)C(=O)N[C@@H](CCCNC(=N)N)C(=O)O [P19]
- activity considering MIC value/efficacy upon fuel co-incubation [1]: X
- activity considering MIC value/efficacy upon fuel co-incubation [2]: +
- activity considering MIC value/efficacy upon fuel co-incubation [3]: +
- activity considering MIC value/efficacy upon fuel co-incubation [4]: X
- activity considering MIC value/efficacy upon fuel co-incubation [5]: +
- activity considering MIC value/efficacy upon fuel co-incubation [6]: +
- activity considering MIC value/efficacy upon fuel co-incubation [7]: X
- activity considering MIC value/efficacy upon fuel co-incubation [8]: X
- activity considering MIC value/efficacy upon fuel co-incubation [9]: Fuel x
- R t, retention time of peptide on HPLC column as a function of peptide hydrophobicity [10]: 13.667 min
- Score [11]: 3
- MIC [12]: 1.9 µM
- MIC [13]: 0.9 µM
- MIC [14]: 0.9 µM
- MIC [16]: 3.9 µM
- MIC [17]: 0.9 µM

Compound: ILPWKWPWFPWRR [P6]
- activity considering MIC value/efficacy upon fuel co-incubation [1]: X
- activity considering MIC value/efficacy upon fuel co-incubation [2]: Fuel x
- activity considering MIC value/efficacy upon fuel co-incubation [3]: +
- activity considering MIC value/efficacy upon fuel co-incubation [4]: X
- activity considering MIC value/efficacy upon fuel co-incubation [5]: X
- activity considering MIC value/efficacy upon fuel co-incubation [6]: Fuel x
- activity considering MIC value/efficacy upon fuel co-incubation [7]: Fuel x
- activity considering MIC value/efficacy upon fuel co-incubation [8]: X
- activity considering MIC value/efficacy upon fuel co-incubation [9]: Fuel x
- R t, retention time of peptide on HPLC column as a function of peptide hydrophobicity [10]: 12.299 min
- Score [11]: -3
- MIC [12]: 0.9 µM
- MIC [13]: 0.9 µM
- MIC [14]: 15.625 µM
- MIC [18]: 7.8 µM
- MIC [16]: 0.9 µM
- MIC [17]: 0.9 µM
- MIC [19]: 0.9 µM

Compound: ILPWKWVWWPWRR [P8]
- activity considering MIC value/efficacy upon fuel co-incubation [1]: X
- activity considering MIC value/efficacy upon fuel co-incubation [2]: Fuel x
- activity considering MIC value/efficacy upon fuel co-incubation [3]: +
- activity considering MIC value/efficacy upon fuel co-incubation [4]: X
- activity considering MIC value/efficacy upon fuel co-incubation [5]: +
- activity considering MIC value/efficacy upon fuel co-incubation [6]: +
- activity considering MIC value/efficacy upon fuel co-incubation [7]: X
- activity considering MIC value/efficacy upon fuel co-incubation [8]: X
- activity considering MIC value/efficacy upon fuel co-incubation [9]: X
- R t, retention time of peptide on HPLC column as a function of peptide hydrophobicity [10]: 12.168 min
- Score [11]: 2
- MIC [12]: 1.9 µM
- MIC [13]: 0.9 µM
- MIC [14]: 3.91 µM
- MIC [18]: 15.625 µM
- MIC [17]: 0.9 µM
- MIC [19]: 31.25 µM
